Tested on: human non-small cell lung carcinoma NCI-H2228 xenografts
Experiment: Therapeutic effect on NCI-H2228 xenografts in nude mice
Assay type: in vivo
Conditions: D0-13 once a day; for Average tumor volume D0: D0 baseline at grouping
Protocol: The following experimental method was used: Nude mice was inoculated subcutaneously with human non-small cell lung carcinoma NCI-H2228 cells, the mice were randomly grouped (D0) and administered until the tumor grew to 80-200 mm^3. Measuring the tumor volume, weighing the mice, and recording the data twice a week. Tumor volume (V) was calculated as:
[…], wherein a and b represented length and width respectively.
T/C(%)=(T-T0)/(C-C0)×100, wherein T, C respectively represented the tumor volume at the end of the experiment; T0, C0 respectively represented the tumor volume at the start of the experiment.
When tumor regression was observed, T/C(%)=(T-T0)/T0×100, wherein T was the tumor volume at the end of the experiment; T0 was the tumor volume at the start of the experiment.
In the table: the solvent group (distilled water containing 0.1% Tween-80) was a control group, the compound of the treatment groups was formulated with distilled water containing 0.1% Tween-80.
D0-20 represented administrating once a day from day 0 (D0) for consecutive 21 days; D0-13 represented administrating once a day from day 0 (D0) for consecutive 14 days.
P value was obtained from student's t test compared with the control group.
n was the number of mice, for the control group, the number of test mice n was 12, and n was 6 for the treatment group.

COc1cc(N2CCNC[C@@H]2C)ncc1-c1cnc(N)c(O[C@H](C)c2c(Cl)ccc(F)c2Cl)c1 [compound of formula I, 5-((R)-1-(2,6-dichloro-3-fluorophenyl)ethoxy)-4′-methoxy-6′-((S)-2-methylpiperazin-1-yl)-3,3′-bipyridin-6-amine]
Average tumor volume D0 (12.5 mg/kg PO): 134.3 mm^3 | % T/C D21 (12.5 mg/kg PO, D21): 22% | Average tumor volume D21 (12.5 mg/kg PO, D21): 394.8 mm^3 | % Inhibition rate D21 (12.5 mg/kg PO, D21, 100-T/C(%)): 78% | Average tumor volume D0 (25 mg/kg PO): 131.0 mm^3 | Average tumor volume D21 (25 mg/kg PO, D21): 21.7 mm^3 | % T/C D21 (25 mg/kg PO, D21, tumor regression, T/C=(T-T0)/T0×100): −83%
